In US20120141390A1, “Natural Preservatives and Antimicrobial Agents” (priority 2007, published 2012):

Experiments:
Assay in all cases: Microplate antibacterial assay (optical density at 540 nm)
Assay type in all cases: cell-based
[1] = test system: Proteus vulgaris ACM 4730; conditions: 37° C., 22 h; for MIC0: highest concentration with no inhibition of growth; for MIC100: lowest concentration giving 100% inhibition
Method: (§1) Bacterial strains and growth conditions: Test organisms used in the assay were Staphylococcus aureus strain 6571 (NCTC—National Collection of Type Cultures, Health Protection Agency Centre for Infection, London, UK), Streptococcus mutans ACM 969 and Proteus vulgaris ACM 4730, were supplied by the Australian Collection of Microorganisms (ACM), University of Queensland. The test organisms were grown for 24 h in Tryptone Soya Yeast Extract Broth (TSYEB) (Oxoid CM 129B, Basingstoke, UK), 30 g/L; yeast extract (Oxoid CM19), 6 g/L. The inoculum was quantified by measuring the optical density (absorbance) at 540 nm and adjusted to 0.5 absorbance with TSYEB.
(§2) Preparation and dilution of bacterial strains: An inoculum was prepared by serially diluting (1:1) the overnight culture of the test organisms in TSYEB broth 22 times. The dilutions from 11-22 were used on the 96 well microlitre plate. After the dilutions were made the lowest dilution was plated on Plate Count Agar (Oxoid CM0463) for all the test organisms to confirm the bacterial count.
(§3) Preparation of Polyphenol Powder from Molasses: the Polyphenol Powder from Molasses (0.1 g) was dissolved in 10 ml of TSYEB. This solution was diluted in TSYEB starting at a concentration of 1% (w/v) and diluted to 0.0005% (w/v).
(§4) Preparation of Antibiotic Solutions: the Antibiotics Penicillin G and Oxytetracyclin hydrochloride from Sigma-Aldrich (St. Louis, Mo.) were used in this study. 0.01 g each of Penicillin G and Oxytetracyclin were dissolved in 20 ml of TSYEB.
(§5) The antibiotic solutions of Penicillin G and Oxytetracyclin were diluted in TSYEB (1:1) starting at a concentration of 0.05% (w/v) and diluted to 2.44×10^−5% (w/v).
(§6) Microplate assay procedure: Flat bottom 96 well sterile microtiter plates with lid to prevent cross contamination (Sarstedt, Nümbrecht, Germany) were used for the study. Each 96 well microtiter plate supported one row of wells containing the medium alone (sterility and negative control). Three rows from the first row of wells contained 1:1 dilutions of test organisms (bacterial controls equivalent to 10^5 cfu/ml in the left most well to 10^2 cfu/ml in the right most well) and the polyphenol solution from molasses highest to the lowest concentration (1% to 0.0005 w/v). Each of the combinations of polyphenol solution and bacterial cells were done in triplicate measurements. The next three rows of wells contained the same number of bacterial dilutions but the polyphenol solution was from the lowest to the highest concentration (0.0005% to 1% w/v). Each of the combinations of polyphenol solution and bacterial cells were done in triplicate measurements. The remaining row contained the same number of bacterial dilutions with growth media and polyphenol solution and was called the positive control. Replicates (n=6) of the positive control with no polyphenol solution was run on a separate plate for test organisms. Each 300 μl well contained 50 μl of inoculum, 150 μL of polyphenol solution. Each negative or sterility control well contained 200 μl of TSYEB broth. Each positive control well contained 50 μl of inoculum, 150 μl of TSYEB broth.
(§7) Penicillin G and Oxytetracyclin hydrochloride were used as reference standards to determine the sensitivity of test organisms and to compare the antimicrobial activity of the polyphenol solution with that of the antibiotics.
(§8) Optical density (OD) was determined in a spectrophotometer Sunrise-Basic Tecan (Grödig, Austria) at 540 nm. OD was determined prior to incubation and represents the spectrophotometric reading at time zero (T0). Plates were placed in an incubator at 37° C. and incubated for 22 h. Streptococcus mutans was incubated at 37° C. for 22 and 44 h. The solutions in the plates were mixed using a multichannel pipette to prevent clumping prior to reading the OD in the spectrophotometer after 22 h (T22).
(§9) Analysis of results: The calculations for Percent Inhibition were based on the study by Casey et al. 2004; Patton et al. 2006. […]

[2] = test system: Streptococcus mutans ACM 969; conditions: lowest concentration giving 100% inhibition, 37° C., growth extended to 44 h
Method: as §1, §2, §3, §4, §5, §6, §7, §8, §9

[3] = test system: Staphylococcus aureus strain 6571; conditions: 37° C., 22 h; for MIC100: lowest concentration giving 100% inhibition
Method: as §1, §2, §3, §4, §5, §6, §7, §8, §9

[4] = listed as oxytetracyclin, hydrochloride

SMILES | MIC0 [1] | MIC100 [1] | MIC100 ([2]; hydrochloride) | MIC100 [2, 4] | MIC100 ([3]; hydrochloride) | MIC100 [3, 4] | MIC100 [2] | MIC0 ([3]; highest concentration with no inhibition of growth) | MIC100 [3]
CN(C)[C@@H]1C(O)=C(C(N)=O)C(=O)[C@@]2(O)C(O)=C3C(=O)c4c(O)cccc4[C@@](C)(O)[C@H]3[C@H](O)[C@@H]12.Cl [Oxytetracylin, Oxytetracyclin hydrochloride] | 2.44 × 10^−5 % w/v | 7.88 × 10^−4 % w/v | <2.44 × 10^−5 % w/v | 2.44×10^−5 % w/v | <2.44 × 10^−5 % w/v | 2.44×10^−5 % w/v |  |  | 
CC1(C)S[C@@H]2[C@H](NC(=O)Cc3ccccc3)C(=O)N2[C@H]1C(=O)O [Penicillin G] | 4.88 × 10^−5 % w/v | 7.81 × 10^−4 % w/v |  |  |  |  | <2.44 × 10^−5 % w/v | <2.44 × 10^−5 % w/v | 9.77 × 10^−5 % w/v
